These results are taken from patent US8110528B2, “Active ingredient combinations with insecticidal properties” (Bayer Cropscience AG, priority 2006, dated 2012).

The structures appear in SMILES notation.

The subject of assay [1] is Myzus persicae. The assay can be described thus: Myzus persicae test (cabbage leaf dip). The assay is classed as in vivo, green peach aphid (Myzus persicae). The following applies: cabbage leaves dipped. The text has this:
(§1) The expected activity for a given combination of two active compounds can be calculated according to S. R. Colby, Weeds 15 (1967), 20-22 as follows: • If • X is the kill rate, expressed in % of the untreated control, when active compound A is applied at an application rate of m g/ha or at a concentration of m ppm, • Y is the kill rate, expressed in % of the untreated control, when active compound B is applied at an application rate of n g/ha or at a concentration of n ppm and • E is the kill rate, expressed in % of the untreated control, when active compounds A and B are applied at application rates of m and n g/ha or at a concentration of m and n ppm, then
(§2) If the actual insecticidal kill rate is greater than calculated, the kill of the combination is superadditive, i.e. there is a synergistic effect. In this case, the actual observed kill rate has to be greater than the value for the expected kill rate (E) calculated from the formula given above.
• Solvent: 7 parts by weight of dimethylformamide • Emulsifier: 2 parts by weight of alkylaryl polyglycol ether […]
After the desired period of time, the kill in % is determined. […] The kill rates determined are entered into the Colby formula (see sheet 1).

In assay [2] the test system is Phaedon cochleariae. The assay can be described thus: Phaedon cochleariae larvae test (cabbage leaf dip). The following applies: cabbage leaves dipped. It is filed as in vivo, mustard beetle (Phaedon cochleariae) larvae.
Excerpt: as §1, §2
• Solvent: 7 parts by weight of dimethylformamide • Emulsifier: 2 parts by weight of alkylaryl polyglycol ether
To produce a suitable preparation of active compound, 1 part by weight of active compound is mixed with the stated amounts of solvent and emulsifier, and the concentrate is diluted with emulsifier-containing water to the desired concentration.
Cabbage leaves (Brassica oleracea) are treated by being dipped into the preparation of active compound of the desired concentration and populated with larvae of the mustard beetle (Phaedon cochleariae) while the leaves are still moist.
After the desired period of time, the kill in % is determined. 100% means that all beetle larvae have been killed; 0% means that none of the beetle larvae have been killed. The kill rates determined are entered into the Colby formula (see sheet 1).

Consider `CN/C(=N\[N+](=O)[O-])NCc1cnc(Cl)s1` [clothianidin], for which the figures for the “Kill in % after 6d” value in assay [1] (0.16 ppm) and in assay [2] (4 ppm) were 35% and 21%, respectively. In addition, the “Kill in % after 4d” value in assay [2] (4 ppm) amounted to 25%.

Regarding `CN(Cc1ccc(Cl)nc1)C1=CC(=O)OC1` [compound (Ia)], the “Kill in % after 4d” value in assay [2] (20 ppm) worked out at 5%.

For the compound `O=C1C=C(N(Cc2ccc(Cl)nc2)C2CC2)CO1` [compound (Ib)], the “Kill in % after 6d” value in assay [1] (0.8 ppm) is listed as 25%; in assay [2] (20 ppm) it was 11%.
